Tested on: HEK293T cells carrying the ATF4 luciferase reporter
Test: ATF4-Luc assay, in vitro model of Vanishing Cell White Matter Disease (VWMD)
Assay type: cell-based
Conditions: Homo sapiens, HEK-293T, 1 μg/mL tunicamycin, 7 hours, One Glo luminescence
Summary of the method: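 Stable HEK293T line with human ATF4 5′-UTR–firefly luciferase reporter treated with 1 μg/mL tunicamycin plus 200 nM compound for 7 h. Luminescence read; EC50 derived.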

With `Cc1cc(C(=O)NC23CC(NC(=O)COc4ccc(Cl)c(F)c4)(C2)C3)n(C(F)F)n1` [Compound 913, N-{3-[2-(4-chloro-3-fluorophenoxy)acetamido]bicyclo[1.1.1]pentan-1-yl}-1-(difluoromethyl)-3-methyl-1H-pyrazole-5-carboxamide] the EC50 was 250 to 1000 nM.
For `O=C(COc1ccc(Cl)c(F)c1)NC12CCC(NC(=O)c3ccccc3)(CC1)[C@@H](O)C2` [Compound 484, N-{(2S)-4-[2-(4-chloro-3-fluorophenoxy)acetamido]-2-hydroxybicyclo[2.2.2]octan-1-yl}benzamide], the EC50 was 50 to 250 nM.
`CCn1nc(C)cc1C(=O)NC12CCC(NC(=O)COc3ccc(Cl)c(F)c3)(CC1)C(O)C2` (stereo not drawn) [Compound 603, N-{4-[2-(4-chloro-3-fluorophenoxy)acetamido]-3-hydroxybicyclo[2.2.2]octan-1-yl}-1-ethyl-3-methyl-1H-pyrazole-5-carboxamide] was tested, and the EC50 was 250 to 1000 nM.
With `Cc1nc2ccc(C(=O)NC34CC(NC(=O)COc5ccc(Cl)c(F)c5)(C3)C4)cc2nc1C` [Compound 779, N-{3-[2-(4-chloro-3-fluorophenoxy)acetamido]bicyclo[1.1.1]pentan-1-yl}-2,3-dimethylquinoxaline-6-carboxamide] the EC50 was > 2000 nM.
`O=C(COc1ccc(Cl)c(F)c1)NC12CCC(NC(=O)c3ccc(C(F)(F)F)o3)(CC1)CC2O` (stereo not drawn) [Compound 625, N-{4-[2-(4-chloro-3-fluorophenoxy)acetamido]-3-hydroxybicyclo[2.2.2]octan-1-yl}-5-(trifluoromethyl)furan-2-carboxamide] was tested, and the EC50 was 250 to 1000 nM.
`Cc1cnc(C(=O)NC23CC(NC(=O)COc4ccc(Cl)cc4)(C2)C3)cn1` [Compound 136, N-{3-[2-(4-chlorophenoxy)acetamido]bicyclo[1.1.1]pentan-1-yl}-5-methylpyrazine-2-carboxamide] showed an EC50 of 250 to 1000 nM.
`O=C(COc1ccc(Cl)c(F)c1)NC12CC(NC(=O)c3cnc(C(F)(F)F)nc3)(C1)C2` [Compound 133, N-{3-[2-(4-chloro-3-fluorophenoxy)acetamido]bicyclo[1.1.1]pentan-1-yl}-2-(trifluoromethyl)pyrimidine-5-carboxamide] was tested, and the EC50 was 1000 to 2000 nM.
`CC(=O)Nc1sccc1C(=O)NC12CC(NC(=O)COc3ccc(Cl)c(F)c3)(C1)C2` [Compound 876, 2-acetamido-N-{3-[2-(4-chloro-3-fluorophenoxy)acetamido]bicyclo[1.1.1]pentan-1-yl}thiophene-3-carboxamide] was tested, and the EC50 was 250 to 1000 nM.
`O=C(COc1ccc(Cl)c(F)c1)NC12CCC(NC(=O)c3ccccc3F)(CC1)[C@@H](O)C2` [Compound 483, N-{(2S)-4-[2-(4-chloro-3-fluorophenoxy)acetamido]-2-hydroxybicyclo[2.2.2]octan-1-yl}-2-fluorobenzamide] gave an EC50 of 50 to 250 nM.
Work on `O=C(COc1ccc(Cl)c(F)c1)NC12CC(NC(=O)c3cc(F)cc(F)c3)(C1)C2` [Compound 513, N-{3-[2-(4-chloro-3-fluorophenoxy)acetamido]bicyclo[1.1.1]pentan-1-yl}-3,5-difluorobenzamide] yielded an EC50 of 50 to 250 nM.
`O=C(COc1ccc(Cl)c(F)c1)NC12CCC(NC(=O)c3csc(C4CC4)n3)(CC1)CC2O` (stereo not drawn) [Compound 522, N-{4-[2-(4-chloro-3-fluorophenoxy)acetamido]-3-hydroxybicyclo[2.2.2]octan-1-yl}-2-cyclopropyl-1,3-thiazole-4-carboxamide] showed an EC50 of 50 to 250 nM.
`Cc1ocnc1C(=O)NC12CC(NC(=O)COc3ccc(Cl)c(F)c3)(C1)C2` [Compound 909, N-{3-[2-(4-chloro-3-fluorophenoxy)acetamido]bicyclo[1.1.1]pentan-1-yl}-5-methyl-1,3-oxazole-4-carboxamide] was tested, and the EC50 was > 2000 nM.
In the case of `Cc1cnc(C(=O)NC23CCC(NC(=O)COc4ccc(Cl)c(F)c4)(CC2)[C@@H](O)C3)cn1` [Compound 666, N-{(3S)-4-[2-(4-chloro-3-fluorophenoxy)acetamido]-3-hydroxybicyclo[2.2.2]octan-1-yl}-5-methylpyrazine-2-carboxamide], the EC50 is reported as < 50 nM.
For `O=C(COc1ccc(Cl)c(F)c1)NC12CC(NC(=O)c3cc(-c4ccc(Cl)cc4)no3)(C1)C2` [Compound 392, N-{3-[2-(4-chloro-3-fluorophenoxy)acetamido]bicyclo[1.1.1]pentan-1-yl}-3-(4-chlorophenyl)-1,2-oxazole-5-carboxamide], the EC50 was < 50 nM.
With `COc1ccnc(C(=O)NC23CCC(NC(=O)COc4ccc(Cl)c(F)c4)(CC2)C(O)C3)c1` (stereo not drawn) [Compound 924, N-{4-[2-(4-chloro-3-fluorophenoxy)acetamido]-3-hydroxybicyclo[2.2.2]octan-1-yl}-4-methoxypyridine-2-carboxamide] the EC50 was > 2000 nM.
`O=C(COc1ccc(Cl)c(F)c1)NC12CC(NC(=O)c3cc(NC4CC4)ccn3)(C1)C2` [Compound 390, N-{3-[2-(4-chloro-3-fluorophenoxy)acetamido]bicyclo[1.1.1]pentan-1-yl}-4-(cyclopropylamino)pyridine-2-carboxamide] showed an EC50 of 1000 to 2000 nM.
`O=C(COc1ccc(Cl)c(F)c1)NC12CC(Nc3nc(Cl)cc4nccn34)(C1)C2` [Compound 428, 2-(4-chloro-3-fluorophenoxy)-N-{3-[(7-chloroimidazo[1,2-c]pyrimidin-5-yl)amino]bicyclo[1.1.1]pentan-1-yl}acetamide] was tested, and the EC50 was 250 to 1000 nM.
With `Cc1ccc(C(=O)NC23CC(NC(=O)COc4ccc(Cl)c(F)c4)(C2)C3)o1` [Compound 555, N-{3-[2-(4-chloro-3-fluorophenoxy)acetamido]bicyclo[1.1.1]pentan-1-yl}-5-methylfuran-2-carboxamide] the EC50 was 50 to 250 nM.
Molecule `O=C(COc1ccc(F)c(F)c1)NC12CC(NC(=O)c3cnc(C(F)F)cn3)(C1)C2` [Compound 278, 5-(difluoromethyl)-N-{3-[2-(3,4-difluorophenoxy)acetamido]bicyclo[1.1.1]pentan-1-yl}pyrazine-2-carboxamide] has an EC50 of 250 to 1000 nM.
For `Cc1ccc(S(=O)(=O)NC23CC(NC(=O)COc4ccc(Cl)c(F)c4)(C2)C3)cc1` [Compound 662, 2-(4-chloro-3-fluorophenoxy)-N-{3-[(4-methylbenzene-1-sulfonyl)amino]bicyclo[1.1.1]pentan-1-yl}acetamide], the EC50 was > 2000 nM.
Work on `CCSc1cncc(C(=O)NC23CC(NC(=O)COc4ccc(Cl)c(F)c4)(C2)C3)n1` [Compound 898, N-{3-[2-(4-chloro-3-fluorophenoxy)acetamido]bicyclo[1.1.1]pentan-1-yl}-6-(ethylsulfanyl)pyrazine-2-carboxamide] yielded an EC50 of 50 to 250 nM.
For `O=C(COc1ccc(Cl)c(F)c1)NC12CC(NC(=O)c3ccc[n+]([O-])c3)(C1)C2` [Compound 402, N-{3-[2-(4-chloro-3-fluorophenoxy)acetamido]bicyclo[1.1.1]pentan-1-yl}-1-oxo-1λ^5-pyridine-3-carboxamide], the EC50 was > 2000 nM.
In the case of `Cc1onc(C(=O)NC23CC(NC(=O)COc4ccc(Cl)c(F)c4)(C2)C3)c1C` [Compound 901, N-{3-[2-(4-chloro-3-fluorophenoxy)acetamido]bicyclo[1.1.1]pentan-1-yl}-4,5-dimethyl-1,2-oxazole-3-carboxamide], the EC50 is reported as > 2000 nM.
For `O=C(COc1ccc(Cl)c(F)c1)NC12CC(NC(=O)c3cccnc3-n3cccn3)(C1)C2` [Compound 807, N-{3-[2-(4-chloro-3-fluorophenoxy)acetamido]bicyclo[1.1.1]pentan-1-yl}-2-(1H-pyrazol-1-yl)pyridine-3-carboxamide], the EC50 was > 2000 nM.
